Marks after values point to notes of the source that are not given here.
What was measured:
[1] = system: AsPC-1 pancreatic cancer; experiment: In vivo growth of AsPC-1 pancreatic cancer xenografts; set-up: species or system human; conditions: AsPC-1-RFP; 28 days after inoculation; Pter and/or CRC
[2] = system: A549 cells isolated from tumor-bearing mice; experiment: Chemosensitization of cultured A549 cells isolated from xenografts; assay type: cell-based, human; conditions: 72 h-cultured, PL 0.5 μM, Chemo 1 μM VRB and 15 μM cisPt, Pter = in vivo pretreatment
Experimental: FIGS. 18-25. Effect of piperlongumine and I-BET762, as GSH depleting and chemosensitizing agents, in in vitro growing human melanoma, pancreatic, breast, lung, liver, prostate, ovarian, and colorectal cancer cells. Cancer cells, isolated from Pter-treated tumor-bearing mice, were cultured as indicated under Methods. Chemotherapy (0.25 μM PAC.PBP in A2058 melanoma and MDA-MB-231 breast carcinoma cells; 0.125 μM PAC.PBP and 25 μM GTB in AsPC-1 pancreatic cancer cells; 1 μM VRB and 15 μM cisPt in A459 lung carcinoma cells; 0.15 μM DXR in HepG2 hepatocellular carcinoma cells; 15 nM DCT in PC-3 prostate carcinoma cells; 0.15 μM PAC.PBP and 25 μM CarboPt in SK-OV-3 ovarian carcinoma cells; 3 μM 5-FU, 1 μM FA and 0.6 μM IRI in HT-29 colorectal carcinoma cells) was added to the cultured flasks 24 h after seeding. […]
Human A2058, MeWo and MelJuso melanoma cells, and mouse AtT-20 pituitary corticotroph tumor cells were from the American Type Culture Collection (ATCC). […] Cell numbers were determined using a Coulter Counter (Coulter Electronic Inc., Miami, Fla.). […] Cellular viability was assessed as previously reported (Mena, S. et al. Clin Cancer Res 13, 2658-2666 (2007)), by measuring trypan blue exclusion and leakage of lactate dehydrogenase activity. […]

COc1cc(/C=C/c2ccc(O)cc2)cc(OC)c1 [Pter, trans-3,5-dimethoxy-4′-hydroxystilbene]
Tumor vol. [1]: 523 ± 168* mm^3 | Viable cells [2]: 1317 ± 255 ×10^6

Source: patent US11179348B2, “Combination comprising pterostilbene for the treatment of cancer” (FUNDACIÓN UNIVERSIDAD CATÓLICA DE VALENCIA SAN VICENTE …, priority 2015, dated 2021)
